PubChem BioAssay AID1117332
Activity calls are given as the source filed them. How the calls were made is not given here.

What follows are compounds tested on HCT116 viability, CellTiter-Glo ATP luminescence (assay: cytotoxicity toward HCT116 cells – cell-based, CellTiter-Glo luminescence, IC50, dose response (AID 1117332)).

Row | Compound | IC50
1 | CCCCCCCCCCCCCC[N+](C)(C)C | 2.29 µM
2 | O=C(O)C1(C(=O)O)CCC1.[NH2-].[NH2-].[Pt+2] | > 20 µM (inactive)
3 | CC(=O)[O][Hg][c]1ccccc1 | 2.8 µM
4 | OCCN1CCN(CC/C=C2/c3ccccc3Sc3ccc(C(F)(F)F)cc32)CC1 | 4.58 µM
5 | O=C1[O][Bi][O]c2ccccc21 | > 20 µM (inactive)
6 | Cc1ccc([N+](=O)[O-])[c]2c1[O][Hg]2 | 2.83 µM
